Measurements: ChEMBL document CHEMBL3091325, “New aminopyrimidine derivatives as inhibitors of the TAM family” (Eur J Med Chem, 2013)

Legend:
[1] = biological target: Tyrosine-protein kinase ABL1 (Homo sapiens) (UniProt P00519); assay: Inhibition of non-phosphorylated form of Abl1 (unknown origin) at 1 uM relative to control
[2] = biological target: Tyrosine-protein kinase ABL1 (Homo sapiens) (UniProt P00519); assay: Inhibition of phosphorylated form of Abl1 (unknown origin) at 1 uM relative to control
[3] = biological target: Fibroblast growth factor receptor 3 (Homo sapiens) (UniProt P22607); assay: Inhibition of FGFR3 (unknown origin) at 0.5 uM relative to control
[4] = biological target: T1, Tyrosine-protein kinase receptor TYRO3 (Homo sapiens) (UniProt Q06418); assay: Inhibition of recombinant human Tyro3 kinase domain using poly (Glu, Ala, Tyr) as substrate at 75 uM after 1.5 hrs by ELISA relative to control
T1 sequence (whole entry): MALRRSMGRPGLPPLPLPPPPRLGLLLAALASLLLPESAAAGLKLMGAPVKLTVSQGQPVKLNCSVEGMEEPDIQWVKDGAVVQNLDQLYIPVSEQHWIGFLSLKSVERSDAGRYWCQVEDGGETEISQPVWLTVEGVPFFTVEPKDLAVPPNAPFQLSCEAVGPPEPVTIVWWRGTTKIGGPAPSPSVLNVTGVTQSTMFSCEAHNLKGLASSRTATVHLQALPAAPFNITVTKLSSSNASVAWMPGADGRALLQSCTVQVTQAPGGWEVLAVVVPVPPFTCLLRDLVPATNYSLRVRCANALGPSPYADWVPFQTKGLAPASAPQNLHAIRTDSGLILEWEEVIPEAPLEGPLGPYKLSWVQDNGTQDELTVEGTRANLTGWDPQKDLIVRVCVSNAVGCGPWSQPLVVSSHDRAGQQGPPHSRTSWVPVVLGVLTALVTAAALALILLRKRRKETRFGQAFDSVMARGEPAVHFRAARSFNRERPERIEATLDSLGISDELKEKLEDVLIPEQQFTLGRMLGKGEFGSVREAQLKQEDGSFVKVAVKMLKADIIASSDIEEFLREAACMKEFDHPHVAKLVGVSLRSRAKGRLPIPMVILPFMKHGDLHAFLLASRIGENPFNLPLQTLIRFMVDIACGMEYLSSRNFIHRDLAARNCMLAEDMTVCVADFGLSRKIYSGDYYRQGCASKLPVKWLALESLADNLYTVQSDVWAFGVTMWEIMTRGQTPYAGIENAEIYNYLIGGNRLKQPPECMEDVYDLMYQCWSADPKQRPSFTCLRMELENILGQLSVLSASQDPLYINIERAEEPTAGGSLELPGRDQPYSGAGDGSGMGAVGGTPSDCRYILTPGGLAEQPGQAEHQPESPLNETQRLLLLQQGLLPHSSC

[5] = biological target: T1, Tyrosine-protein kinase receptor TYRO3 (Homo sapiens); assay: Inhibition of recombinant human Tyro3 kinase domain using poly (Glu, Ala, Tyr) as substrate at 0.5 uM after 1.5 hrs by ELISA relative to control
[6] = biological target: Fibroblast growth factor receptor 3 (Homo sapiens) (UniProt P22607); assay: Inhibition of FGFR3 (unknown origin) at 1 uM relative to control
[7] = biological target: Tyrosine-protein kinase ABL1 (Homo sapiens) (UniProt P00519); assay: Inhibition of phosphorylated form of Abl1 (unknown origin) at 0.5 uM relative to control
[8] = biological target: T2, Tyrosine-protein kinase Mer (Homo sapiens) (UniProt Q12866); assay: Inhibition of Mer (unknown origin) at 75 uM relative to control
T2 sequence (whole entry): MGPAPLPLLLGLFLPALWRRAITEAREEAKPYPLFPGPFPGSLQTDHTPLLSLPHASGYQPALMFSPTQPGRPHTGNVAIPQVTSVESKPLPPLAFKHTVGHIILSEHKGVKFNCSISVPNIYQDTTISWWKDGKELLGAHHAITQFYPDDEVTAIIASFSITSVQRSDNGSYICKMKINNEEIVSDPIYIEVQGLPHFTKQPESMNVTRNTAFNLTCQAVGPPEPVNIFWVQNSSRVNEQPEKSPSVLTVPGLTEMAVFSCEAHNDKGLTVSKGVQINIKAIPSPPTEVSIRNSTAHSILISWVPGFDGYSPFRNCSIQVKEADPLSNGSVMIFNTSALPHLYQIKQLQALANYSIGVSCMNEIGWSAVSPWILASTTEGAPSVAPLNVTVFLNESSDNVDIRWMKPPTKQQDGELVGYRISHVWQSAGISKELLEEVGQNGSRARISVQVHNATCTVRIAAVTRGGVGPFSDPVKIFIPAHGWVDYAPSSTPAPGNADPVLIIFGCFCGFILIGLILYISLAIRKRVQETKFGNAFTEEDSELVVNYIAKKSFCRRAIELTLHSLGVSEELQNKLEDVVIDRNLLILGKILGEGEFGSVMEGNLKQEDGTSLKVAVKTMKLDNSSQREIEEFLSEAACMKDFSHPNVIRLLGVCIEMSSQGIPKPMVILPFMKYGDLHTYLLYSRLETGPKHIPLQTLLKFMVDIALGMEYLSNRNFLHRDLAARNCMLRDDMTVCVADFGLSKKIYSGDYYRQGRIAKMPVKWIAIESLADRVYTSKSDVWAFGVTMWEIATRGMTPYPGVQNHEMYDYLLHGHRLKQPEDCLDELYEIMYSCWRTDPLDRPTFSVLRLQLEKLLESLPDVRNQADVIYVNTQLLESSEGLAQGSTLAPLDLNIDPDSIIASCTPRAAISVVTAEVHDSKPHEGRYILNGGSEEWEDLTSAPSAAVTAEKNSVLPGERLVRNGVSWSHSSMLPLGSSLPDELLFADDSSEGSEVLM

[9] = biological target: Hepatocyte growth factor receptor (Homo sapiens) (UniProt P08581); assay: Inhibition of Met (unknown origin) at 1 uM relative to control
[10] = biological target: T2, Tyrosine-protein kinase Mer (Homo sapiens); assay: Inhibition of Mer (unknown origin) at 0.5 uM relative to control
[11] = biological target: T1, Tyrosine-protein kinase receptor TYRO3 (Homo sapiens); assay: Inhibition of recombinant human Tyro3 kinase domain using poly (Glu, Ala, Tyr) as substrate at 1 uM after 1.5 hrs by ELISA relative to control
[12] = biological target: Tyrosine-protein kinase ABL1 (Homo sapiens) (UniProt P00519); assay: Inhibition of non-phosphorylated form of Abl1 (unknown origin) at 75 uM relative to control
[13] = biological target: Tyrosine-protein kinase ABL1 (Homo sapiens) (UniProt P00519); assay: Inhibition of phosphorylated form of Abl1 (unknown origin) at 75 uM relative to control
[14] = biological target: Tyrosine-protein kinase receptor UFO (Homo sapiens) (UniProt P30530); assay: Inhibition of Axl (unknown origin) at 75 uM relative to control
[15] = biological target: Tyrosine-protein kinase receptor UFO (Homo sapiens) (UniProt P30530); assay: Inhibition of Axl (unknown origin) at 1 uM relative to control
[16] = biological target: T2, Tyrosine-protein kinase Mer (Homo sapiens); assay: Inhibition of Mer (unknown origin) at 1 uM relative to control
[17] = biological target: Tyrosine-protein kinase receptor UFO (Homo sapiens) (UniProt P30530); assay: Inhibition of Axl (unknown origin) at 0.5 uM relative to control
[18] = biological target: Fibroblast growth factor receptor 3 (Homo sapiens) (UniProt P22607); assay: Inhibition of FGFR3 (unknown origin) at 75 uM relative to control
[19] = biological target: Tyrosine-protein kinase ABL1 (Homo sapiens) (UniProt P00519); assay: Inhibition of non-phosphorylated form of Abl1 (unknown origin) at 0.5 uM relative to control
[20] = biological target: Hepatocyte growth factor receptor (Homo sapiens) (UniProt P08581); assay: Inhibition of Met (unknown origin) at 75 uM relative to control
[21] = biological target: Hepatocyte growth factor receptor (Homo sapiens) (UniProt P08581); assay: Inhibition of Met (unknown origin) at 0.5 uM relative to control

Chain of Tyrosine-protein kinase ABL1 (Homo sapiens) (P00519 whole entry): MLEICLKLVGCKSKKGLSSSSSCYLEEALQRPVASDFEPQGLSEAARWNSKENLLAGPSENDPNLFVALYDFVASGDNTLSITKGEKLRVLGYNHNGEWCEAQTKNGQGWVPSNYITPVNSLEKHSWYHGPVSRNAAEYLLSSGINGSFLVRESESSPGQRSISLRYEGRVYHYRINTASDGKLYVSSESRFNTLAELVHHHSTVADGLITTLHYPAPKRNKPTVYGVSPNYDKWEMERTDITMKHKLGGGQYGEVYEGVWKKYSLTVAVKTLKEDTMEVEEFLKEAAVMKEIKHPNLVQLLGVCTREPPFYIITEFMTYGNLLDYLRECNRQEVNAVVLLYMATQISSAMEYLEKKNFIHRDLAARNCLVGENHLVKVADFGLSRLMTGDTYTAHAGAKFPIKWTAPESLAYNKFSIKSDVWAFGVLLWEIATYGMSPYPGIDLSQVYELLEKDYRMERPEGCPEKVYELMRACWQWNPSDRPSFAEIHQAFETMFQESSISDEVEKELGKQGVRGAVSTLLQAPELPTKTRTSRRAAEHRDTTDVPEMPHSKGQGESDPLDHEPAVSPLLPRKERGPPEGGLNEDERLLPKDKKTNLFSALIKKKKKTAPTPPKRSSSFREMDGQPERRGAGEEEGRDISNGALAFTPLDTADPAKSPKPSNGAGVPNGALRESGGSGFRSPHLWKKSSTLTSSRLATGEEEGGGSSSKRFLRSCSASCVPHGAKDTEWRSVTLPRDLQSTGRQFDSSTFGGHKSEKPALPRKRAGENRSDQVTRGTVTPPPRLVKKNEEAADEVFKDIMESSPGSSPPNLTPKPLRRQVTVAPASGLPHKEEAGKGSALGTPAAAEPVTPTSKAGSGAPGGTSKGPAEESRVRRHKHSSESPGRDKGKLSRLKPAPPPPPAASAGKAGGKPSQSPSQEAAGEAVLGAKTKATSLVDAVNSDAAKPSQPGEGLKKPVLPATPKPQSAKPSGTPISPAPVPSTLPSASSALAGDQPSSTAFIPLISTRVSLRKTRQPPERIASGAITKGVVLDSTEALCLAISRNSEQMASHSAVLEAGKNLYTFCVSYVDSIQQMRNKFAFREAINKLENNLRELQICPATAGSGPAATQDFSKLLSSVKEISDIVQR
Chain of Hepatocyte growth factor receptor (Homo sapiens) (P08581 whole entry): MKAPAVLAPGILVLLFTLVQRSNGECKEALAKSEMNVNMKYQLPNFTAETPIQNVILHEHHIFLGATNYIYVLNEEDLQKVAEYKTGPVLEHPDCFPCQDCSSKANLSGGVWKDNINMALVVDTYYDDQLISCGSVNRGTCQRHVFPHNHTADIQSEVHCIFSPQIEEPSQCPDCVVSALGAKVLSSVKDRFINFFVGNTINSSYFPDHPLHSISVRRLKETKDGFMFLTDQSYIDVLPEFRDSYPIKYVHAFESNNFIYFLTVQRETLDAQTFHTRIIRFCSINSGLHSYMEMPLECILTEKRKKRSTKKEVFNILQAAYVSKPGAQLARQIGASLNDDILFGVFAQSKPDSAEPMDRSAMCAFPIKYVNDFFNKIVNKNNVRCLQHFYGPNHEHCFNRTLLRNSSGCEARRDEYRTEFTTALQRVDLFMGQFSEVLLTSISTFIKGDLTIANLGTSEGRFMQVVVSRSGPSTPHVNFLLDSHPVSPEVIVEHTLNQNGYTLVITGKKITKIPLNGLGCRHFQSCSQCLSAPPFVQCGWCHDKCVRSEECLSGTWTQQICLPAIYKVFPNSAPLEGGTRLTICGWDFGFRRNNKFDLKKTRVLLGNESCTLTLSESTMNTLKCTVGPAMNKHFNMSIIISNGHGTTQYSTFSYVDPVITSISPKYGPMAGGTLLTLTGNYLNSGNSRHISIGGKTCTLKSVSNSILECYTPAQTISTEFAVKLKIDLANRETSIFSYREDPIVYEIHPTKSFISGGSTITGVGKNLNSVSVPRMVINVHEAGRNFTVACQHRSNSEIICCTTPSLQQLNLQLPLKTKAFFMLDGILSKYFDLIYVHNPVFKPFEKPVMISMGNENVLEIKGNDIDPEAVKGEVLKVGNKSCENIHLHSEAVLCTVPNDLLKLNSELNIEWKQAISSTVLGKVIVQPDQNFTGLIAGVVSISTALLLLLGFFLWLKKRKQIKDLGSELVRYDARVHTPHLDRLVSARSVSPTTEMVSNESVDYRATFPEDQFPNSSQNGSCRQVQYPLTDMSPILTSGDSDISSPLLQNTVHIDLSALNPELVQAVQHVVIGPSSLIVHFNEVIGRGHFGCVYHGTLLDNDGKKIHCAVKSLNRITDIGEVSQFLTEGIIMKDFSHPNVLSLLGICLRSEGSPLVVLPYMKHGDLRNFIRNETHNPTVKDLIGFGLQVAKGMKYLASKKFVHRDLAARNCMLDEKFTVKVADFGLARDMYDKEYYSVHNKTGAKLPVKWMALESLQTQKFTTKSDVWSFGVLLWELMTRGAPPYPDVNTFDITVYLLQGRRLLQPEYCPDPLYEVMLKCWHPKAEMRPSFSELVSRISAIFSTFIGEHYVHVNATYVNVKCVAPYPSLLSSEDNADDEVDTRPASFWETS
Chain of Tyrosine-protein kinase receptor UFO (Homo sapiens) (P30530 whole entry): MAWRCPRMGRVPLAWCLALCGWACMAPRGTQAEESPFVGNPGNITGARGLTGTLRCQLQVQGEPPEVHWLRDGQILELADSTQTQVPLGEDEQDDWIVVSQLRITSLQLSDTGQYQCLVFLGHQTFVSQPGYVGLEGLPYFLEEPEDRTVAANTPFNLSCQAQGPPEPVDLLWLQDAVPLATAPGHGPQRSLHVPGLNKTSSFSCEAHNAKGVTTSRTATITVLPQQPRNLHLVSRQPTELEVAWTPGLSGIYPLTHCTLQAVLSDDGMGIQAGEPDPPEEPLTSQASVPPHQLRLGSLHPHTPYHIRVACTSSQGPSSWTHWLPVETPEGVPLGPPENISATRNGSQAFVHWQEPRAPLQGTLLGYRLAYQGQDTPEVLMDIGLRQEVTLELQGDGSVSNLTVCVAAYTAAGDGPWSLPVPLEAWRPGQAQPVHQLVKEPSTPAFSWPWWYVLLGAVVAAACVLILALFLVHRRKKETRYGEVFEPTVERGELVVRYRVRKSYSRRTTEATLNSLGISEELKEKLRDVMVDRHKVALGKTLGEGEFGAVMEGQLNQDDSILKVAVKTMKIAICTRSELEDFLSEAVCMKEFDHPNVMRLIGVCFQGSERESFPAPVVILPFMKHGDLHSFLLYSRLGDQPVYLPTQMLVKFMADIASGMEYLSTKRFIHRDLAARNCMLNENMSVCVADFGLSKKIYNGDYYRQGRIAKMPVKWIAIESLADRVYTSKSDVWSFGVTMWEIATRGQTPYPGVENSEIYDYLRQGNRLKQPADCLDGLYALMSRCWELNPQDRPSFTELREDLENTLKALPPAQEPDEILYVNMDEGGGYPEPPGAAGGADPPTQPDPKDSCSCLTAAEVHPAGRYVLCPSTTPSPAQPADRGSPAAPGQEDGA
Chain of Fibroblast growth factor receptor 3 (Homo sapiens) (P22607 23-806 limits assumed): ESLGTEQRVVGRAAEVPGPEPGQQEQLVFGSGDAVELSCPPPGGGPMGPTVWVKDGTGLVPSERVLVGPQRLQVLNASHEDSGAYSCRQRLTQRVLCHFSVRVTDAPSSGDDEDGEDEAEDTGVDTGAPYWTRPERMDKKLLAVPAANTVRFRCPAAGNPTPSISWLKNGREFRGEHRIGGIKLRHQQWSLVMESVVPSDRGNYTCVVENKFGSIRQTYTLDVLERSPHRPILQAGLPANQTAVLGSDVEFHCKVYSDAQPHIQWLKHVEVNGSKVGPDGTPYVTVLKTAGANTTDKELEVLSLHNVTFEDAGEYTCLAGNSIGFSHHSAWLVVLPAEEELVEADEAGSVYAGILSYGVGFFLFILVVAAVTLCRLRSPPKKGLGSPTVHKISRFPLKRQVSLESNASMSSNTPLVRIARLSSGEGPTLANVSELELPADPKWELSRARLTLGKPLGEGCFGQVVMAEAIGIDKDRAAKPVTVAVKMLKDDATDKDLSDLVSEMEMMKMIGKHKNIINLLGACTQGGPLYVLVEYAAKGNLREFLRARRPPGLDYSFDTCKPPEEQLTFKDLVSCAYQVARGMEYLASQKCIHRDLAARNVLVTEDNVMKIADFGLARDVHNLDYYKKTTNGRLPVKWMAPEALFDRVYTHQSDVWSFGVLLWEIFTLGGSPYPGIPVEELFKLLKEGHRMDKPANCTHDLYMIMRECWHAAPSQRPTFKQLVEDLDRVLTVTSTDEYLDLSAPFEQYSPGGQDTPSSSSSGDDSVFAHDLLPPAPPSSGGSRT

Structure (SMILES)	inhibition [1] [%]	inhibition [2] [%]	inhibition [3] [%]	inhibition [4] [%]	inhibition [5] [%]	inhibition [6] [%]	inhibition [7] [%]	inhibition [8] [%]	inhibition [9] [%]	inhibition [10] [%]	inhibition [11] [%]	inhibition [12] [%]	inhibition [13] [%]	inhibition [14] [%]	inhibition [15] [%]	inhibition [16] [%]	inhibition [17] [%]	inhibition [18] [%]	inhibition [19] [%]	inhibition [20] [%]	further results
O=C(Nc1ccc(Oc2cc(NCCN3CCOCC3)ncn2)c(F)c1)c1cccn(-c2ccc(F)cc2)c1=O	12	0	0	75	50	0	1	49	99	90	63	71	13	100	99	93	95	0	12	99	inhibition [21]: 98%
Nc1cc(Oc2ccc(NC(=O)c3cccn(-c4ccc(F)cc4)c3=O)cc2F)ncn1	41	0	0	100	77	0	0	83	98	89	94	94	39	100	100	93	97	16	23	98	inhibition [21]: 98%
